Measured values: patent US20090156511A1, “Agent for Enhancing Antiseptic Power” (Kao Corporation, priority 2005, published 2009)

Tested on: Staphylococcus aureus IF013276, Escherichia coli IF03972, Pseudomonas aeruginosa IF013275
Assay: Antibacterial test (inoculated composition held at 30° C., colony counting method)
Type: cell-based
Protocol: The following bacteria were suspended in a physiological saline such that the number of bacteria or spores was 10^8 CFU/mL. to prepare a bacteria-containing solution. Then, 0.005 mL of the thus obtained bacteria-containing solution was inoculated into 5 mL of the composition to be tested such that the bacteria concentration therein was […]. The thus inoculated composition was held at 30° C. for a predetermined period of time to measure the change in number of bacteria with time by the calculation using a colony counting method. The antibacterial property of the composition was evaluated according to the following four ratings.
Staphylococcus aureus IF013276
Pseudomonas aeruginosa IF013275
⊚: Sufficiently high antibacterial property (number of bacteria was decreased by […] or more)
◯: High antibacterial property (number of bacteria was decreased by […])
Δ: Low antibacterial property (number of bacteria was decreased by 10^2 to 10^1)

α,β-n-dodecyl galactoside
antibacterial property by itself (0.1% by mass in water without antiseptic agent, Table 1, after 9 days): no antibacterial property

α,β-2-hexyldecyl galactoside
antibacterial property by itself (0.1% by mass without antiseptic agent, with polyoxyethylene (60) hydrogenated castor oil, Table 2, after 7 days): no antibacterial property
